BigSolDB 2.1

COc1ccccc1OCCNCC(O)COc1cccc2[nH]c3ccccc3c12 (stereo not given)
Conditions	solubility (mole fraction)
in PEG-400, 288.15 K	0.0501
in PEG-400, 293.15 K	0.0539
in PEG-400, 298.15 K	0.0582
in PEG-400, 303.15 K	0.062
in PEG-400, 308.15 K	0.0661

solubility (mole fraction)
Conditions	288.15 K	293.15 K	298.15 K	303.15 K	308.15 K
in THF	0.0211	0.0235	0.0261	0.0291	0.0321
in acetone	0.0125	0.0147	0.0173	0.0201	0.023
in dichloromethane	0.00254	0.00334	0.00429	0.00556	0.00722
in ethanol	0.000677	0.000846	0.00106	0.00128	0.00158
in ethyl acetate	0.0015	0.00189	0.00239	0.00292	0.00362
in glycerin	0.000273	0.000307	0.000342	0.00038	0.000421
in isopropanol	0.000421	0.000555	0.000726	0.000947	0.00124
in methanol	0.000767	0.000959	0.0012	0.00149	0.00185
in n-butanol	0.000678	0.00079	0.000924	0.00108	0.00125
in n-propanol	0.000634	0.000791	0.000996	0.00122	0.00149
in propylene glycol	0.00138	0.00155	0.00174	0.00193	0.00213
